# Results published in ChEMBL document CHEMBL4417631, “Oral peptide inhibitors of interleukin-23 receptor and their use to treat inflammatory bowel diseases” (2017).
# Where a SMILES comes first, the peptide text is derived from it. [ ]: non-standard residue; d: D form. hLeu = CC(C)CC[C@H](N)C(=O)O
# Target: T1, Interleukin-23 receptor (Homo sapiens, UniProt Q5VWK5)
# T1 sequence (Q5VWK5 whole entry): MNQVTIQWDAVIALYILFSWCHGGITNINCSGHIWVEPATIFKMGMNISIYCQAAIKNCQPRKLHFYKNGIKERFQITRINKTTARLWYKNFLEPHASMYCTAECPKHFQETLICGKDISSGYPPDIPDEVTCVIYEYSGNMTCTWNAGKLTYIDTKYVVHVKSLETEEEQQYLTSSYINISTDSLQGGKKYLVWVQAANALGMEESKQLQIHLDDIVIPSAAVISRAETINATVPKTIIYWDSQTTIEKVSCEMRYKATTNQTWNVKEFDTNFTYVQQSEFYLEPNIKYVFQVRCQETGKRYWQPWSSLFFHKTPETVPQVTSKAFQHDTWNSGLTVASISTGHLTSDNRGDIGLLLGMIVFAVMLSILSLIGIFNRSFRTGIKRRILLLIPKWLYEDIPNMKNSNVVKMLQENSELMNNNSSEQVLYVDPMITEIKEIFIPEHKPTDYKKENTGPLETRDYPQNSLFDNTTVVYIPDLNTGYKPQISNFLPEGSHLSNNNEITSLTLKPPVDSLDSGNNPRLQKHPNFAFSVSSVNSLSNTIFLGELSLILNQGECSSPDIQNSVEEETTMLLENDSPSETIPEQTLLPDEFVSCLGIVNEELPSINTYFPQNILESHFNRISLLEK
# Assay: Inhibition of interleukin-23 binding to human interleukin-23 receptor incubated for 2 hrs by competitive binding ELISA
row,SMILES,IC50 [nM]
1,CC(=O)NCCCC[C@H](NC(=O)[C@](C)(CCCCN)NC(=O)[C@H](Cc1ccc2ccccc2c1)NC(=O)[C@H](Cc1ccc(Cl)c(Cl)c1)NC(=O)[C@@H](NC(=O)[C@H](CCC(N)=O)NC(=O)[C@H](Cc1c[nH]c2ccccc12)NC(=O)[C@@H](NC(=O)[C@H](CCC(N)=O)NC(=O)[C@@H](NC(C)=O)C(C)(C)S)[C@@H](C)O)C(C)(C)S)C(=O)N[C@@H](CC(N)=O)C(=O)NCC(N)=O,100 to 1000
2,CC(=O)N[C@@H](CS)C(=O)N[C@@H](CCC(N)=O)C(=O)N[C@H](C(=O)N[C@@H](Cc1c[nH]c2ccccc12)C(=O)N[C@@H](CCC(N)=O)C(=O)N[C@@H](CS)C(=O)N[C@@H](Cc1cnc[nH]1)C(=O)N[C@@H](Cc1c[nH]c2ccccc12)C(=O)N[C@@H](CCC(C)C)C(=O)N[C@@H](CCC(=O)O)C(=O)N[C@@H](CC(N)=O)C(=O)NCC(N)=O)[C@@H](C)O,6000
3,CC(=O)N[C@@H](CS)C(=O)N[C@@H](C)C(=O)N[C@@H](CC(=O)O)C(=O)N[C@@H](Cc1c[nH]c2ccccc12)C(=O)N[C@H](C(=O)N[C@@H](CS)C(=O)N[C@@H](Cc1ccc(O)cc1)C(=O)N[C@@H](Cc1cccc2ccccc12)C(=O)N[C@@H](Cc1cnc[nH]1)C(=O)NCCOCCC(N)=O)C(C)C,> 1000
4,CC(=O)N[C@@H](CS)C(=O)N[C@@H](CCC(N)=O)C(=O)N[C@H](C(=O)N[C@@H](Cc1c[nH]c2ccccc12)C(=O)N[C@@H](CCC(N)=O)C(=O)N[C@@H](CS)C(=O)N[C@@H](Cc1ccc(O)cc1)C(=O)N[C@@H](Cc1c[nH]c2ccccc12)C(=O)N[C@@H](CCCNC(=N)N)C(=O)N[C@@H](CCCN)C(=O)N[C@@H](CC(N)=O)C(=O)NCC(=O)NCCOCC(=O)N[C@H](CCCCN)C(N)=O)[C@@H](C)O,< 500
5,CC(=O)N[C@@H](CS)C(=O)N[C@@H](C)C(=O)N[C@@H](CC(=O)O)C(=O)N[C@@H](Cc1c[nH]c2ccccc12)C(=O)N[C@H](C(=O)N[C@@H](CS)C(=O)N[C@@H](Cc1ccc(O)cc1)C(=O)N[C@@H](Cc1c[nH]c2ccccc12)C(=O)N[C@@H](Cc1cnc[nH]1)C(=O)N[C@@H](CC(N)=O)C(=O)N[C@@H](Cc1cnc[nH]1)C(=O)N[C@@H](CO)C(=O)N[C@@H](CCC(=O)O)C(=O)NCC(=O)N[C@@H](CO)C(=O)NCC(N)=O)C(C)C (Ac-CADWVCYWHNHSEGSG-NH2),500 to 1000
6,CC(=O)N[C@@H](CC(=O)O)C(=O)N[C@H](C(=O)N1CCC[C@H]1C(=O)N[C@@H](CCCNC(=N)N)C(=O)N[C@@H](CS)C(=O)N[C@@H](CCCNC(=N)N)C(=O)N[C@H](C(=O)N[C@@H](Cc1c[nH]c2ccccc12)C(=O)N[C@@H](CCC(=O)O)C(=O)N[C@@H](CS)C(=O)N[C@@H](Cc1ccc(O)cc1)C(=O)N[C@@H](Cc1c[nH]c2ccccc12)C(=O)N[C@@H](Cc1cnc[nH]1)C(=O)N[C@H](C(=O)N[C@@H](Cc1ccccc1)C(=O)NCC(N)=O)[C@@H](C)O)[C@@H](C)O)[C@@H](C)O,500 to 1000
7,C[C@@H](O)[C@H](NC(=O)[C@H](CCC(N)=O)NC(=O)[C@@H](N)CS)C(=O)N[C@@H](Cc1c[nH]c2ccccc12)C(=O)N[C@@H](CCC(N)=O)C(=O)N[C@@H](CS)C(=O)N[C@@H](Cc1ccc(O)cc1)C(=O)N1Cc2ccccc2C[C@H]1C(=O)N[C@@H](CCCN)C(=O)N[C@@H](CCCCN)C(=O)N[C@@H](Cc1ccccc1)C(=O)NCC(=O)NCCOCC(=O)N[C@H](CCCCN)C(N)=O,> 30000
8,CC(=O)N[C@H](CCCCN)C(=O)N[C@@H](CS)C(=O)N[C@@H](CCCNC(=N)N)C(=O)N[C@@H](CC(=O)O)C(=O)N[C@@H](Cc1c[nH]c2ccccc12)C(=O)N[C@@H](CCC(N)=O)C(=O)N[C@@H](CS)C(=O)N[C@@H](Cc1ccc(O)cc1)C(=O)N[C@@H](Cc1cccc2ccccc12)C(=O)N[C@@H](Cc1cnc[nH]1)C(=O)N[C@H](C(=O)N[C@@H](Cc1cnc[nH]1)C(=O)N(C)CC(=O)NCCOCCC(=O)N[C@H](CCCNC(=N)N)C(N)=O)[C@@H](C)O,500 to 1000
9,CC(=O)NCCCC[C@H](NC(=O)[C@](C)(CCCCN)NC(=O)[C@H](Cc1ccc2ccccc2c1)NC(=O)[C@H](Cc1cc(F)cc(F)c1)NC(=O)[C@@H](NC(=O)[C@H](CCC(N)=O)NC(=O)[C@H](Cc1c[nH]c2ccccc12)NC(=O)[C@@H](NC(=O)[C@H](CCC(N)=O)NC(=O)[C@@H](NC(C)=O)C(C)(C)S)[C@@H](C)O)C(C)(C)S)C(=O)N[C@@H](CC(N)=O)C(=O)NCC(N)=O,100 to 1000
10,CC(=O)N[C@@H](CS)C(=O)N[C@@H](CCC(N)=O)C(=O)N[C@H](C(=O)N[C@@H](Cc1c[nH]c2ccccc12)C(=O)N[C@@H](CCC(N)=O)C(=O)N[C@@H](CS)C(=O)N[C@@H](Cc1ccc(O)cc1)C(=O)N[C@H](CC(=O)N[C@@H](CCCNC(=N)N)C(=O)N[C@H](C(=O)N[C@@H](CC(N)=O)C(=O)NCC(=O)NCCOCC(=O)N[C@H](CCCCN)C(N)=O)C(C)C)Cc1ccc(F)cc1)[C@@H](C)O,> 30000
11,CC(=O)N[C@@H](CS)C(=O)N[C@@H](CCC(N)=O)C(=O)N[C@H](C(=O)N[C@H](C(=O)N[C@@H](CCC(N)=O)C(=O)N[C@@H](CS)C(=O)N[C@@H](Cc1ccc(O)cc1)C(=O)N[C@@H](Cc1c[nH]c2ccccc12)C(=O)N[C@@H](CCC(C)C)C(=O)N[C@@H](CCC(=O)O)C(=O)N[C@@H](CC(N)=O)C(=O)NCC(N)=O)[C@@H](C)O)[C@@H](C)O (Ac-CQTTQCYW[hLeu]ENG-NH2),> 10000
12,CC(=O)N[C@@H](CS)C(=O)N[C@@H](CCC(N)=O)C(=O)N[C@H](C(=O)N[C@@H](Cc1c[nH]c2ccccc12)C(=O)N[C@@H](CCC(N)=O)C(=O)N[C@@H](CS)C(=O)N[C@@H](Cc1ccc(O)cc1)C(=O)N[C@@H](Cc1c[nH]c2ccccc12)C(=O)N[C@@H](CCCNC(=N)N)C(=O)N[C@@H](CCC(=O)O)C(=O)N[C@@H](CC(N)=O)C(=O)NCC(N)=O)[C@@H](C)O (Ac-CQTWQCYWRENG-NH2),< 500
13,CC(=O)N[C@@H](CS)C(=O)N[C@@H](C)C(=O)N[C@@H](CC(=O)O)C(=O)N[C@@H](Cc1c[nH]c2ccccc12)C(=O)N[C@H](C(=O)N[C@@H](CS)C(=O)N[C@@H](Cc1ccc(O)cc1)C(=O)N[C@@H](Cc1cccc2ccccc12)C(=O)N[C@H](C)C(=O)N[C@H](C(=O)N[C@@H](Cc1ccccc1)C(=O)NCC(N)=O)[C@@H](C)O)C(C)C,> 1000
14,CC(=O)N[C@@H](CS)C(=O)N[C@@H](CCCNC(=N)N)C(=O)N[C@H](C(=O)N[C@@H](Cc1c[nH]c2ccccc12)C(=O)N[C@@H](CCC(=O)O)C(=O)N[C@@H](CS)C(=O)N[C@@H](Cc1ccc(O)cc1)C(=O)N[C@@H](Cc1c[nH]c2ccccc12)C(=O)N[C@@H](Cc1cnc[nH]1)C(=O)N[C@@H](CCC(=O)O)C(=O)N[C@@H](CCC(N)=O)C(=O)N[C@@H](CO)C(N)=O)[C@@H](C)O (Ac-CRTWECYWHEQS-NH2),< 500
15,CC(=O)N[C@@H](CS)C(=O)N[C@@H](CCC(N)=O)C(=O)N[C@H](C(=O)N[C@@H](Cc1c[nH]c2ccccc12)C(=O)N[C@@H](CCC(N)=O)C(=O)N[C@@H](CS)C(=O)N[C@@H](Cc1ccc(O)cc1)C(=O)N[C@@H](Cc1c[nH]c2ccccc12)C(=O)N[C@@H](CCCNC(=N)N)C(=O)N[C@@H](CCCCN)C(=O)N[C@@H](CC(N)=O)C(=O)NCC(=O)NCCOCC(=O)N[C@H](CCCCN)C(N)=O)[C@@H](C)O,< 500
16,CC(=O)N[C@@H](CS)C(=O)N[C@@H](CCCCN)C(=O)N[C@H](C(=O)N[C@@H](Cc1c[nH]c2ccccc12)C(=O)N[C@@H](CCC(N)=O)C(=O)N[C@@H](CS)C(=O)N[C@@H](Cc1ccc(O)cc1)C(=O)N[C@@H](Cc1c[nH]c2ccccc12)C(=O)N[C@@H](CCCNC(=N)N)C(=O)N[C@H](C(=O)N[C@@H](Cc1ccccc1)C(=O)NCC(=O)NCCOCC(=O)N[C@H](CCCCN)C(N)=O)C(C)C)[C@@H](C)O,40
17,CC(=O)N[C@H](CCCCNC(=O)COCC(=O)NCCCC[C@@H](NC(C)=O)C(=O)N[C@@H](CO)C(=O)N[C@@H](CS)C(=O)N[C@@H](C)C(=O)N[C@@H](CC(=O)O)C(=O)N[C@@H](Cc1c[nH]c2ccccc12)C(=O)N[C@H](C(=O)N[C@@H](CS)C(=O)N[C@@H](Cc1ccc(O)cc1)C(=O)N[C@@H](Cc1c[nH]c2ccccc12)C(=O)N[C@@H](Cc1cnc[nH]1)C(=O)N[C@H](C(=O)N[C@@H](Cc1ccccc1)C(=O)NCC(=O)O)[C@@H](C)O)C(C)C)C(=O)N[C@@H](CO)C(=O)N[C@@H](CS)C(=O)N[C@@H](C)C(=O)N[C@@H](CC(=O)O)C(=O)N[C@@H](Cc1c[nH]c2ccccc12)C(=O)N[C@H](C(=O)N[C@@H](CS)C(=O)N[C@@H](Cc1ccc(O)cc1)C(=O)N[C@@H](Cc1c[nH]c2ccccc12)C(=O)N[C@@H](Cc1cnc[nH]1)C(=O)N[C@H](C(=O)N[C@@H](Cc1ccccc1)C(=O)NCC(=O)O)[C@@H](C)O)C(C)C,> 10000
18,CC(=O)NC1CC/C=C\CC(C(=O)N[C@@H](Cc2ccc(O)cc2)C(=O)N[C@@H](Cc2c[nH]c3ccccc23)C(=O)N[C@@H](CCCNC(=N)N)C(=O)N[C@@H](CCCCN)C(=O)N[C@@H](Cc2ccccc2)C(=O)NCC(=O)NCCOCC(=O)N[C@H](CCCCN)C(N)=O)NC(=O)[C@H](CCC(N)=O)NC(=O)[C@H](Cc2c[nH]c3ccccc23)NC(=O)[C@H]([C@@H](C)O)NC(=O)[C@H](CCCNC(=N)N)NC1=O (some centres undefined),100 to 1000
19,CSC[C@H](NC(=O)[C@H](CCC(N)=O)NC(=O)[C@H](Cc1c[nH]c2ccccc12)NC(=O)[C@@H](NC(=O)[C@H](CCCNC(=N)N)NC(=O)[C@H](C)NC(C)=O)[C@@H](C)O)C(=O)N[C@@H](Cc1ccc(O)cc1)C(=O)N[C@@H](Cc1c[nH]c2ccccc12)C(=O)N[C@@H](CCCNC(=N)N)C(=O)N[C@@H](CCCCN)C(=O)N[C@@H](Cc1ccccc1)C(=O)NCC(=O)NCCOCC(=O)N[C@H](CCCCN)C(N)=O,7570
